# According to patent US9303033B2, “Pyrazolopyrimidines and related heterocycles as CK2 inhibitors” (SENHWA BIOSCIENCES, INC., priority 2009, dated 2016):
# pIC50: −log10 of the molar value. Read-outs that look alike come from different tables or passages of the source.
# How the values were obtained:
# recombinant human PIM2 = recombinant human PIM2 (Homo sapiens (Human), UniProt Q9P1W9); test: PIM-2 assay (33P-ATP filter binding); assay type: biochemical; conditions: for PIM2: % inh […]: at […] compound
# MDAMB453 = test: Cell proliferation assay with Alamar Blue (AB), MDAMB453; assay type: cell-based
# Description: (§1) A representative cell-proliferation assay protocol using Alamar Blue dye (stored at 4° C., use 20 ul per well) is described hereafter.
# (§2) a. Split and trypsinize cells.
# (§3) b. Count cells using hemocytometer.
# (§4) c. Plate 4,000-5,000 cells per well in 100 μl of medium and seed into a 96-well plate according to the following plate layout. Add cell culture medium only to wells B10 to B12.
# (§5) d. Add 100 μl of 2× drug dilution to each well in a concentration shown in the plate layout above. […] Total volume is 200 μl/well.
# (§6) e. Incubate four (4) days at 37° C., 5% CO2 in a humidified incubator.
# (§7) f. Add […] Alamar Blue reagent to each well.
# (§8) g. Incubate for four (4) hours at 37° C., 5% CO2 in a humidified incubator.
# (§9) h. Record fluorescence at an excitation wavelength of 544 nm and emission wavelength of 590 nm using a microplate reader.
# (§10) In the assays, cells are cultured with a test compound for approximately four days, the dye is then added to the cells and fluorescence of […] dye is detected after approximately four hours. Different types of cells can be utilized in the assays (e.g., HCT-116 human colorectal carcinoma cells, PC-3 human prostatic cancer cells, MDA-MB231 human breast cancer cells, K-562 human chronic myelogenous leukemia (CML) cells, MiaPaca human pancreatic carcinoma cells, MV-4 human acute myeloid leukemia cells, and BxPC3 human pancreatic adenocarcinoma cells).
# [1] = test system: BxPC3 human pancreatic adenocarcinoma cells; test: Cell proliferation assay with Alamar Blue (AB), BxPC3; assay type: cell-based
# Description: as §1, §2, §3, §4, §5, §6, §7, §8, §9, §10
# CK2 ααββ = CK2 ααββ (Homo sapiens (Human), UniProt P68400); test: CK2 assay (cell-free, 33P-ATP, phosphocellulose filter plate); assay type: biochemical
# [2] = PIM2: IC50 (5 μM ATP), 5 μM ATP
# [3] = Homo sapiens, MDA-MB-453, MDAMB453 cells, read-out: AB: MDAMB453
# [4] = Homo sapiens, BXPC-3, read-out: AB: BxPC3
# [5] = MDAMB453 cells, read-out: AB: MDAMB453 IC50
# Sequence of CK2 ααββ (P68400 whole entry): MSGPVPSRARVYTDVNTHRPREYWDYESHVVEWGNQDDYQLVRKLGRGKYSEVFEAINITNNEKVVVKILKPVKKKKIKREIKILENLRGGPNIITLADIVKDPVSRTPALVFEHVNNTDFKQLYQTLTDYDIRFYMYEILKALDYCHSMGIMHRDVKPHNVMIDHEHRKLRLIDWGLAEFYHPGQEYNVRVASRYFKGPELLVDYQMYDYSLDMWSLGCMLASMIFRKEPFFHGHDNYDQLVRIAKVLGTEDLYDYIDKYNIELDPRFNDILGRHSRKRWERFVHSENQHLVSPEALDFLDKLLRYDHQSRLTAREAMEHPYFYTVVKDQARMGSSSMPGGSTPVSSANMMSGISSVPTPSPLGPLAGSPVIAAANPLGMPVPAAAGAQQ
# Sequence of CK2 ααββ (P67870 whole entry partner): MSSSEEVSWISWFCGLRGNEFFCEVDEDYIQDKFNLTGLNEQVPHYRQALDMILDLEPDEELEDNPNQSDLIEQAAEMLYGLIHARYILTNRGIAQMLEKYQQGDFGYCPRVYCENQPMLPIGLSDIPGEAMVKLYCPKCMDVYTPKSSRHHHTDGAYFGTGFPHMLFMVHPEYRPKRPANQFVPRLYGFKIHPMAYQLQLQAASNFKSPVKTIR
# Sequence of recombinant human PIM2 (Q9P1W9 whole entry): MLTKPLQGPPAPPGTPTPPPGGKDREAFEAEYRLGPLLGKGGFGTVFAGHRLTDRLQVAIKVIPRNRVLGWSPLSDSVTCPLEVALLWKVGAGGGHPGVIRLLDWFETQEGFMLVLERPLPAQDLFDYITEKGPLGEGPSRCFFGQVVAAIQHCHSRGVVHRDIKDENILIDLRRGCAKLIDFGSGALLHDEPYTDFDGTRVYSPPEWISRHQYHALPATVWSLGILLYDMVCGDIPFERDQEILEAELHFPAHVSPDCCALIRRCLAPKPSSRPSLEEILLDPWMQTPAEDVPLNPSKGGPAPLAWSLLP
Structure (SMILES),pIC50 (recombinant human PIM2; [2]),pIC50 (MDAMB453; [3]),"pIC50 [1, 4]",pIC50 (CK2 ααββ),also measured
CC(C)N1CCN(C(=O)c2cc(-c3cc(NC4CC4)n4ncc(/C=C5\NC(=O)NC5=O)c4n3)ccc2F)CC1 [Example D5],< 5.60,5.61,5.92,> 7.00,–
O=C1NC(=O)/C(=C/c2cnn3c(NC4CCNC4)cc(Nc4cccc(Cl)c4)nc23)N1 (stereo not drawn) [Example P6],–,6.24,5.79,–,–
O=C1NC(=O)/C(=C/c2cnn3c(NC4CC4)cc(NC(=O)C4CC4)nc23)N1 [Example L2],–,5.38,4.96,> 8.00,–
CCOCCNc1cc(Nc2cccc(Cl)c2)nc2c(/C=C3\NC(=O)NC3=O)cnn12 [Example C6],–,5.94,5.42,–,–
O=C1NC(=O)/C(=C/c2cnn3c(NC4CCCC4)cc(Nc4cccc(Cl)c4)nc23)N1 [Example B6],–,4.98,< 4.52,–,–
"Cc1nn2c(NC3CC3)cc(Nc3ccc(-n4cccn4)cc3)nc2c1C=C1NC(=O)NC1=O [Example 275, 5-((5-(4-(1H-pyrazol-1-yl)phenylamino)-7-(cyclopropylamino)-2-methylpyrazolo[1,5-a]pyrimidin-3-yl)methylene)imidazolidine-2,4-dione]",–,–,–,< 6.00,"inhibition at […] (recombinant human PIM2; read-out: PIM2: % inh […], at 2.5 μM compound): 43.4%"
C[C@@H](Nc1cc(NC2CC2)n2ncc(/C=C3\NC(=O)NC3=O)c2n1)C1CC1 [Example X2],5.71,–,–,> 8.00,–
Cc1cc(-c2cc(NC3CC3)n3ncc(/C=C4\NC(=O)NC4=O)c3n2)cc(C)c1O [Example C5],< 5.60,–,–,> 6.00,–
Cc1c(N2CCN(c3ccccn3)CC2)nc2c(C=C3SC(=O)NC3=O)cnn2c1NC1CC1 [Example S46],–,–,–,> 6.00,PIM2: % inh […] (recombinant human PIM2): −19.761%
CC(C)Oc1cccc(Nc2cc(NC3CC3)n3ncc(/C=C4\NC(=O)NC4=O)c3n2)c1 [Example M1],< 5.60,–,–,> 8.00,–
O=C1NC(=O)/C(=C/c2cnn3c(NC4CCN(Cc5ccccn5)CC4)cc(Nc4cccc(Cl)c4)nc23)N1 [Example V5],< 5.60,–,–,> 6.00,–
"O=C1NC(=O)/C(=C/c2cnn3c(NC(=O)C4CCNCC4)cc(Nc4cccc(Cl)c4)nc23)N1 [Example B1, N-(5-(3-chlorophenylamino)-3-((2,5-dioxoimidazolidin-4-ylidene)methyl)pyrazolo[1,5-a]pyrimidin-7-yl)piperidine-4-carboxamide]",5.60,–,–,> 6.00,–
O=C1NC(=O)/C(=C/c2cnn3c(SCc4ccccc4)cc(-c4cccc(Cl)c4)nc23)N1 [Example Y5],6.54,–,–,> 6.00,–
CS(=O)(=O)N[C@H]1CC[C@H](Nc2cc(NC3CC3)n3ncc(/C=C4\NC(=O)NC4=O)c3n2)CC1 [Example E3],< 5.60,–,–,> 8.00,–
CC(C)(C)CC(=O)N1CCC(Nc2cc(Nc3cccc(Cl)c3)nc3c(/C=C4\NC(=O)NC4=O)cnn23)CC1 [Example S5],< 5.60,–,–,> 7.00,–
CC(C)N1CCC(Nc2cc(Nc3cccc(Cl)c3)nc3c(/C=C4\NC(=O)NC4=O)cnn23)CC1 [Example Q5],< 5.60,–,–,> 7.00,–
CCN(CC)CCNc1cc(NC2CC2)n2ncc(/C=C3\SC(=O)NC3=O)c2n1 [Example O3],< 5.60,–,–,> 7.00,–
CNS(=O)(=O)c1cccc(-c2cc(NC3CC3)n3ncc(/C=C4\NC(=O)NC4=O)c3n2)c1 [Example Y3],< 5.60,–,–,> 8.00,–
CC(Oc1nc(NC2CC2)n2ncc(C=C3NC(=O)NC3=O)c2n1)c1c(Cl)ccc(F)c1Cl (stereo not drawn) [Compound L36],–,–,–,> 8.00,pIC50 (recombinant human PIM2; read-out: PIM2: IC50): < 6.00
O=C1NC(=O)/C(=C/c2cnn3c(NC4CCC4)cc(Nc4cccc(Cl)c4)nc23)N1 [Example G6],< 5.60,–,–,> 6.00,–
O=C1NC(=O)/C(=C/c2cnn3c(NC4CC4)cc(Nc4cc(F)cc(F)c4)nc23)N1 [Example N1],5.71,–,–,> 8.00,–
COC(=O)N[C@H]1CC[C@H](Nc2cc(NC3CC3)n3ncc(/C=C4\NC(=O)NC4=O)c3n2)CC1 [Example C3],6.17,–,–,> 8.00,–
CC(C)Nc1cc(Nc2cccc(Cl)c2)nc2c(/C=C3\NC(=O)NC3=O)cnn12 [Example F6],< 5.60,–,–,> 7.00,–
O=C1NC(=O)/C(=C/c2cnn3c(NCC4CC4)cc(Nc4cc(F)cc(F)c4)nc23)N1 [Example J2],< 5.60,–,–,> 7.00,–
O=C1NC(=O)/C(=C/c2cnn3c(NC4CC4)cc(Nc4cc(Cl)ccc4F)nc23)N1 [Example Q1],< 5.60,–,–,> 8.00,–
O=C1NC(=O)/C(=C/c2cnn3c(NC4CC4)cc(Nc4ccc(F)c(Cl)c4)nc23)N1 [Example S1],5.69,–,–,> 8.00,–

# Further lines, with some results ahead:
pIC50 (recombinant human PIM2; [2]),pIC50 (MDAMB453; [3]),"pIC50 [1, 4]",pIC50 (CK2 ααββ),Structure (SMILES),also measured
6.59,5.97,6.13,> 8.00,O=C1NC(=O)/C(=C/c2cnn3c(NC4CC4)cc(-c4ccncc4)nc23)N1 [Example Q4],–
–,–,–,> 8.00,Cc1c(N2CCN(c3ccccn3)CC2)nc2c(C=C3NC(=O)NC3=O)cnn2c1NC1CC1 [Example Q46],PIM2: % inh […] (recombinant human PIM2): 13.151%; pIC50 (MDAMB453; [5]): < 4.52; pIC50 ([1]; read-out: AB: BxPC3 IC50): < 4.52
6.55,6.81,5.27,> 8.00,O=C1NC(=O)/C(=C/c2cnn3c(NCC4CC4)cc(NN4CCOCC4)nc23)N1 [Example Q2],–
–,–,–,> 8.00,O=C1NC(=O)C(=Cc2cnn3c(NC4CC4)cc(-c4csc(CNC5CCCC5)c4)nc23)N1 [Compound B14],"pIC50 (recombinant human PIM2; read-out: PIM2: IC50 (5 μM ATP), 5 μM ATP): 5.84; pIC50 (MDAMB453; MDAMB453 cells, read-out: AB: MDAMB453): 5.79; pIC50 ([1]; read-out: AB: BxPC3): 6.00"
–,< 4.52,4.71,> 8.00,N#Cc1cccc(Cc2cc(NC3CC3)n3ncc(/C=C4\NC(=O)NC4=O)c3n2)c1,"pIC50 (recombinant human PIM2; 5 um ATP, read-out: PIM2: IC50 (5 um ATP)): < 5.60"
–,–,–,> 8.00,CC(CNc1cc(Nc2ccc(C#N)cc2Cl)nc2c(C=C3NC(=O)NC3=O)cnn12)N1CCOCC1 (racemic) [Example 522],pIC50 (MDAMB453; [5]): 5.82; pIC50 ([1]; read-out: AB: BxPC3 IC50): 4.98
6.05,6.40,5.81,> 8.00,O=C1NC(=O)/C(=C/c2cnn3c(NC4CC4)cc(-c4cccc(OC(F)(F)F)c4)nc23)N1 [Example T3],–
< 5.60,5.43,5.43,> 8.00,NC(=O)c1cccc(-c2cc(NC3CC3)n3ncc(/C=C4\NC(=O)NC4=O)c3n2)c1 [Example U3],–
< 5.60,4.57,5.27,> 8.00,CN(c1cccc(-c2cc(NC3CC3)n3ncc(/C=C4\NC(=O)NC4=O)c3n2)c1)S(C)(=O)=O [Example B5],–
5.66,5.10,5.10,> 8.00,O=C1NC(=O)/C(=C/c2cnn3c(NC4CC4)cc(-c4cccc(OCCCO)c4)nc23)N1 [Example B4],–
–,6.02,5.76,> 8.00,COc1cccc(-c2cc(NC3CC3)n3ncc(/C=C4\NC(=O)NC4=O)c3n2)c1 [Example A5],–
6.21,6.48,4.97,> 8.00,O=C1NC(=O)/C(=C/c2cnn3c(NC4CC4)cc(-c4cccc(O)c4)nc23)N1 [Example S3],–
5.76,< 4.52,< 4.52,> 8.00,CCS(=O)(=O)Nc1cccc(-c2cc(NC3CC3)n3ncc(/C=C4\NC(=O)NC4=O)c3n2)c1 [Example X4],–
< 5.60,4.75,4.77,> 8.00,O=C1NC(=O)/C(=C/c2cnn3c(NC4CC4)cc(Nc4cccc(OC(F)(F)F)c4)nc23)N1 [Example E1],–
< 5.60,< 4.52,< 4.52,> 8.00,O=C1NC(=O)/C(=C/c2cnn3c(NC4CC4)cc(-c4cccc(OCCN5CCOCC5)c4)nc23)N1 [Example A4],–
5.84,5.19,< 4.52,> 8.00,CN(C)C1CCN(C(=O)c2cccc(Nc3cc(Nc4cccc(Cl)c4)nc4c(/C=C5\NC(=O)NC5=O)cnn34)c2)C1 (stereo not drawn) [Example C7],–
< 5.60,6.29,4.88,> 8.00,CS(=O)(=O)c1cccc(-c2cc(NC3CC3)n3ncc(/C=C4\NC(=O)NC4=O)c3n2)c1 [Example X3],–
5.83,5.75,6.14,> 8.00,O=C1NC(=O)/C(=C/c2cnn3c(NC4CC4)cc(-c4ccc(O)cc4)nc23)N1 [Example L4],–
< 5.60,< 4.52,4.90,> 8.00,O=C1NC(=O)/C(=C/c2cnn3c(NC4CC4)cc(-c4cccc(C(F)(F)F)c4)nc23)N1 [Example N4],–
